From patent publication US20060240535A1, “Carbonyl reductase from lactococcus lactis” (GEORGIA TECH RESEARCH CORPORATION, priority 2004, published 2006)

What was measured:
[1] = test system: carbonyl reductase from Lactococcus lactis; assay: CRLL activity assay (decrease of NADPH absorption); substrate table of the isolated carbonyl reductase; type: biochemical; details: Substrate (20 mM); for spec. Act. (U/mg): activity per protein (0.37, 5.5 or 6.6 mg/mL)
Excerpt: The construct crll-pkk223-3 as well as crll-his-pkk223-3 were both transformed separately into the E. coli host strain HB101 for expression.

[2] = molecular target: T1, carbonyl reductase from Lactococcus lactis (LL-CR) (Lactococcus lactis, UniProt Q9CJ60); assay: Oxidation of secondary alcohols to ketones by LL-CR (enantiospecificity); type: biochemical
[3] = molecular target: T1, carbonyl reductase from Lactococcus lactis (LL-CR); assay: Purified CRLL activity in aqueous-organic tunable solvents (OATS); type: biochemical
Protocol: As LL-CR requires organic buffers for stability, such as HEPES or triethanolamine, runs were conducted in partially organic systems using a buffer system of 200 mM NH4CHO3 and 50 mM HEPES at pH 7.0.

[4] = molecular target: T1, carbonyl reductase from Lactococcus lactis (LL-CR); assay: Enzyme characterisation of purified LL-CR (KM, vmax, kcat, pH and T optima); type: biochemical
[5] = substrate: CC(=O)c1ccccc1; assay: as above; type: biochemical, Lactococcus lactis; details: other: pH 7.0 and 30° C.

`CC(=O)CO` [hydroxyacetone] was tested. Which “Activity (U/mL)” value [1] did it give?
Its value is 0.77 U/mL.

And the “spec. Act. (U/mg)” value [1]?
The value was 2.081 U/mg.

Which “Activity (U/mL)” value [1] does the source give for `O=C(O)C(=O)c1ccccc1` [benzoylformate] here?
Its value is 0 U/mL.

And the “spec. Act. (U/mg)” value [1]?
The value was 0 U/mg.

How did the “Activity (U/mL)” value [1] turn out when `COC(=O)C(=O)c1ccccc1` [Methyl benzoylformate] was run?
Its value is 3.86 U/mL.

What about the “spec. Act. (U/mg)” value [1] of the same molecule?
Its value is 0.5848 U/mg.

What does the source list for `CCCCCC=O` [hexylaldehyde]?
Activity (U/mL) [1]: 45.82 U/mL; spec. Act. (U/mg) [1]: 6.942 U/mg

With `CCC(=O)c1ccccc1` [propiophenone] as the molecule, how does the “Activity (U/mL)” value [1] read?
Its value is 2.2 U/mL.

And the “spec. Act. (U/mg)” value [1]?
Its value is 0.4 U/mg.

`CCCCCCCC=O` [octylaldehyde] was tested. Which “Activity (U/mL)” value [1] did it give?
Its value is 10.93 U/mL.

And the “spec. Act. (U/mg)” value [1]?
The value was 1.656 U/mg.

What does the source list for `COC(=O)CC(C)=O` [Methyl acetoacetate]?
Activity (U/mL) [1]: 36.7 U/mL; spec. Act. (U/mg) [1]: 5.561 U/mg

What does the source list for `O=C1CCCC2CCCCC12` (centres unmarked) [1-decalone]?
Activity (U/mL) [1]: 5.29 U/mL; spec. Act. (U/mg) [1]: 14.3 U/mg

`O=C1CCCCC1` [cyclohexanone] was tested. Which “Activity (U/mL)” value [1] did it give?
Its value is 49 U/mL.

What about the “spec. Act. (U/mg)” value [1] of the same molecule?
Its value is 7.424 U/mg.

Which results are given for `CC(=O)c1ccccc1` [acetophenone]?
Activity (U/mL) [1]: 53 U/mL; spec. Act. (U/mg) [1]: 8.03 U/mg

Which “spec. Act. (U/mg)” value [1] does the source give for `O=C1CCc2ccccc21` [1-indanone] here?
Its value is 0 U/mg.

Which “Activity (U/mL)” value [1] does the source give for `CCOCCO` [ethoxyethanol] here?
Its value is 0.0128 U/mL.

And the “spec. Act. (U/mg)” value [1]?
The value was 0.03459 U/mg.

With `CCOC(=O)C(=O)c1ccccc1` [ethyl benzoylformate] as the molecule, how does the “Activity (U/mL)” value [1] read?
Its value is 11.25 U/mL.

And the “spec. Act. (U/mg)” value [1]?
Its value is 1.705 U/mg.

`CCCC(=O)CC(=O)OCC` [ethyl 3-oxohexanoate] was tested. Which “Activity (U/mL)” value [1] did it give?
Its value is 9.64 U/mL.

What about the “spec. Act. (U/mg)” value [1] of the same molecule?
Its value is 26.05 U/mg.

Which results are given for tetralone?
Activity (U/mL) [1]: 3.2 U/mL; spec. Act. (U/mg) [1]: 0.4848 U/mg

What does the source list for `CC(=O)COc1ccccc1` [Phenoxy-2-propanone]?
Activity (U/mL) [1]: 10.61 U/mL; spec. Act. (U/mg) [1]: 28.68 U/mg

Which “Activity (U/mL)” value [1] does the source give for `CCOC(=O)CC(C)=O` [ethyl acetoacetate] here?
Its value is 7.07 U/mL.

What about the “spec. Act. (U/mg)” value [1] of the same molecule?
The value was 19.11 U/mg.

`CCCC[C@@H](C)O` [(R)-2-hexanol] was tested. Which “oxidation of secondary alcohol to the respective ketone” value [2] did it give?
The value was “can oxidize”.

`CC(=O)CCC(C)=O` [acetonylacetone] was tested. Which “Activity (U/mL)” value [1] did it give?
Its value is 57.88 U/mL.

What about the “spec. Act. (U/mg)” value [1] of the same molecule?
Its value is 8.77 U/mg.

For `CC(O)CO` (centres unmarked) [1,2-propanediol], which “Activity (U/mL)” value [1] is on record?
The value was 0.025 U/mL.

What about the “spec. Act. (U/mg)” value [1] of the same molecule?
Its value is 0.06757 U/mg.

t-butylcyclohexanone was tested. Which “Activity (U/mL)” value [1] did it give?
The value was 0 U/mL.

And the “spec. Act. (U/mg)” value [1]?
The value was 0 U/mg.

Which “Activity (U/mL)” value [1] does the source give for `O=Cc1ccccc1` [benzaldehyde] here?
The value was 8.3 U/mL.

And the “spec. Act. (U/mg)” value [1]?
Its value is 1.258 U/mg.

With `CC1(C)COC(=O)C1=O` [ketopantolactone] as the molecule, how does the “Activity (U/mL)” value [1] read?
Its value is 9.49 U/mL.

And the “spec. Act. (U/mg)” value [1]?
Its value is 25.65 U/mg.

For `CCC=O` [propionaldehyde], which “Activity (U/mL)” value [1] is on record?
The value was 69 U/mL.

And the “spec. Act. (U/mg)” value [1]?
The value was 10.45 U/mg.

Which “Activity (U/mL)” value [1] does the source give for `CC1CC(=O)CC(C)(C)C1` (centres unmarked) [3,3,5-trimethyl-CHone] here?
Its value is 0.24 U/mL.

What about the “spec. Act. (U/mg)” value [1] of the same molecule?
Its value is 0.6486 U/mg.

What does the source list for `CC(=O)C(C)C` [3-methyl-2-butanone]?
Activity (U/mL) [1]: 12.06 U/mL; spec. Act. (U/mg) [1]: 32.59 U/mg

Which “specific activity of LL-CR on isopropanol” value ([3]; regeneration substrate, extends beyond 50% solvent content) does the source give for `CC(C)O` [isopropanol] here?
The value was 2-4 U/mg protein.

Which “oxidation of secondary alcohol to the respective ketone” value [2] does the source give for `C[C@@H](O)c1ccccc1` [(R)-1-phenyl-1-ethanol] here?
The value was “can oxidize”.

`CC(=O)C(C)(C)C` [pinacolone] was tested. Which “Activity (U/mL)” value [1] did it give?
The value was 22.5 U/mL.

And the “spec. Act. (U/mg)” value [1]?
Its value is 3.409 U/mg.

Which “Activity (U/mL)” value [1] does the source give for `CCCCC(C)=O` [2-hexanone] here?
Its value is 1.28 U/mL.

What about the “spec. Act. (U/mg)” value [1] of the same molecule?
The value was 3.459 U/mg.

Which results are given for `CC(=O)CC(C)=O` [2,4-pentane-dione]?
Activity (U/mL) [1]: 90.77 U/mL; spec. Act. (U/mg) [1]: 13.75 U/mg

`CCOC(=O)CC(=O)c1ccccc1` [ethyl benzoylacetate] was tested. Which “Activity (U/mL)” value [1] did it give?
The value was 4.98 U/mL.

And the “spec. Act. (U/mg)” value [1]?
Its value is 13.46 U/mg.

What does the source list for `CC(=O)CC(C)C` [4-methyl-2-pentanone]?
Activity (U/mL) [1]: 21.7 U/mL; spec. Act. (U/mg) [1]: 3.288 U/mg

Which “Activity (U/mL)” value [1] does the source give for `CC(C)=O` [acetone] here?
Its value is 8.36 U/mL.

What about the “spec. Act. (U/mg)” value [1] of the same molecule?
The value was 22.59 U/mg.

Which results are given for `OCCOCCO` [diethyleneglycol]?
Activity (U/mL) [1]: 0.38 U/mL; spec. Act. (U/mg) [1]: 1.027 U/mg

Which “Activity (U/mL)” value [1] does the source give for `CCOC(=O)C(C)=O` [ethyl pyruvate] here?
Its value is 16.32 U/mL.

What about the “spec. Act. (U/mg)” value [1] of the same molecule?
The value was 2.473 U/mg.

How did the “Activity (U/mL)” value [1] turn out when `CCCC=O` [butyraldehyde] was run?
The value was 12.7 U/mL.

And the “spec. Act. (U/mg)” value [1]?
The value was 34.32 U/mg.

B1: carbonyl reductase from Lactococcus lactis (LL-CR) (Lactococcus lactis subsp. lactis Il1403) (protein)
chain: MKTLITGENKGIGFALAQNLGHRGYEVLVGARNETRGQEAVEKLKAEGITAKFVKVDLDDLNQLTSLSALTDIDLLINNAGISGNIHSDKGHLDMEKSAFDYSTTDLEETIKTNFLGTHAVIKELLPHSLTENAKIINITVPVSQEYWMPLAYVTSKAAQNAMTFAFGHQFKKDKSKKQIFAVMPGAVATDLNGAKVGDSPFVKSPEETAQMISKFIFDDKNHNAQIINFDGTIYDNYEPGLRNKVIKDVAKNGLKRKFKK
Which results are given for B1?
T optimum [4]: 40 °C; pH optimum [4]: 6.5; calculated kcat ([4]; pH 7.0 and 30° C.): 24 s⁻¹; vmax ([4]; pH 7.0 and 30° C.): 80 U/mg pure protein; organic solvent content at which enzyme is active ([3]; 200 mM NH4HCO3/50 mM HEPES, pH 7.0, 30° C.): up to 50%; organic solvent content at which stable ([3]; acetonitrile, dioxane, or tetrahydrofuran): below 60%; Km [5]: 500 µM
